Experimental data: patent publication US9586951B2 (FUJIFILM Corporation, priority 2013, dated 2017)

Legend:
[1] = tested on: human non-small cell lung cancer cell line NCI-H460; test: Cell proliferation inhibition test by sensitivity-enhancing to ionizing radiation (Cell Titer Glo); format: cell-based; settings: concentration in which SER became 2, NCI-H460 cells, ionizing radiation 2 Gy, cultured 120 hour
Protocol: A human non-small cell lung cancer cell line NCI-H460 (ATCC company) was adjusted so as to be 2×10^3 cells/mL in a RPMI-1640 medium containing penicillin/streptomycin and FBS having a final concentration of 10%, and this was seeded by 100 μL per well in 96-well CellBIND® plates (Corning International Inc.). After 24 hours, the medium of cells was replaced with 100 μL of a medium including serially diluted liquid of the test compound or DMSO having a final concentration of 0.1%. 30 minutes after the medium was replaced, half of the plates were irradiated with ionizing radiation 2 Gy (Faxitron Bioptics, LLC, RX-650 type). The cells of the plates irradiated with ionizing radiation and the plates not being irradiated with ionizing radiation were cultured at 37° C. for 120 hour in 5% CO2. After a Cell Titer Glo reaction liquid of an equal volume was added to each well, the amount of luminescence was measured, according to the instruction book of Cell Titer Glo (Promega Corporation). Since the amount of luminescence is proportional to the ATP concentration in cells, the amount of luminescence was used as an indicator of the number of viable cells. Sensitivity-enhancing effects (SER) to ionizing radiation by the test compound was calculated by the following equation. SER=(amount of luminescence of wells including DMSO having a final concentration of 0.1% in the plates irradiated with ionizing radiation×amount of luminescence of wells including a compound in the plates not being irradiated with ionizing radiation)/(amount of luminescence of wells including the test compound in the plates irradiated with ionizing radiation×amount of luminescence of wells including DMSO having a final concentration of 0.1% in the plates not being irradiated with ionizing radiation)
SER at each compound concentration was plotted by nonlinear regression fit (FitModel (205)) by a sigmoidal dose-response equation using XLfit software (IDBS), and the concentration (SER2) in which SER became 2 was calculated.

ATM = biological target: T1, ATM (Homo sapiens, UniProt Q13315); test: ATM inhibition test (phosphorylation of Chk2 generated by ionizing radiation, AlphaScreen SureFire); format: cell-based; settings: phosphorylated Chk2 in NCI-H460 cells, ionizing radiation 8Gy, 1 hour after test compound treatment; read-out: ATM inhibitory activity
T1 construct: detecting phosphorylation of Chk2 in a human non-small cell lung cancer cell line NCI-H460 (ATCC company); host or cells: NCI-H460 human non-small cell lung cancer cells
Outline: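 NCI-H460 cells, compound 1 h pre-treatment, 8Gy IR, further 1 h at 37° C in 5% CO2. Read-out: phospho-Chk2 via AlphaScreen SureFire. % inhibition relative to IR-induced signal window (irradiated vs non-irradiated drug-free wells).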

T1 sequence (Q13315 whole entry): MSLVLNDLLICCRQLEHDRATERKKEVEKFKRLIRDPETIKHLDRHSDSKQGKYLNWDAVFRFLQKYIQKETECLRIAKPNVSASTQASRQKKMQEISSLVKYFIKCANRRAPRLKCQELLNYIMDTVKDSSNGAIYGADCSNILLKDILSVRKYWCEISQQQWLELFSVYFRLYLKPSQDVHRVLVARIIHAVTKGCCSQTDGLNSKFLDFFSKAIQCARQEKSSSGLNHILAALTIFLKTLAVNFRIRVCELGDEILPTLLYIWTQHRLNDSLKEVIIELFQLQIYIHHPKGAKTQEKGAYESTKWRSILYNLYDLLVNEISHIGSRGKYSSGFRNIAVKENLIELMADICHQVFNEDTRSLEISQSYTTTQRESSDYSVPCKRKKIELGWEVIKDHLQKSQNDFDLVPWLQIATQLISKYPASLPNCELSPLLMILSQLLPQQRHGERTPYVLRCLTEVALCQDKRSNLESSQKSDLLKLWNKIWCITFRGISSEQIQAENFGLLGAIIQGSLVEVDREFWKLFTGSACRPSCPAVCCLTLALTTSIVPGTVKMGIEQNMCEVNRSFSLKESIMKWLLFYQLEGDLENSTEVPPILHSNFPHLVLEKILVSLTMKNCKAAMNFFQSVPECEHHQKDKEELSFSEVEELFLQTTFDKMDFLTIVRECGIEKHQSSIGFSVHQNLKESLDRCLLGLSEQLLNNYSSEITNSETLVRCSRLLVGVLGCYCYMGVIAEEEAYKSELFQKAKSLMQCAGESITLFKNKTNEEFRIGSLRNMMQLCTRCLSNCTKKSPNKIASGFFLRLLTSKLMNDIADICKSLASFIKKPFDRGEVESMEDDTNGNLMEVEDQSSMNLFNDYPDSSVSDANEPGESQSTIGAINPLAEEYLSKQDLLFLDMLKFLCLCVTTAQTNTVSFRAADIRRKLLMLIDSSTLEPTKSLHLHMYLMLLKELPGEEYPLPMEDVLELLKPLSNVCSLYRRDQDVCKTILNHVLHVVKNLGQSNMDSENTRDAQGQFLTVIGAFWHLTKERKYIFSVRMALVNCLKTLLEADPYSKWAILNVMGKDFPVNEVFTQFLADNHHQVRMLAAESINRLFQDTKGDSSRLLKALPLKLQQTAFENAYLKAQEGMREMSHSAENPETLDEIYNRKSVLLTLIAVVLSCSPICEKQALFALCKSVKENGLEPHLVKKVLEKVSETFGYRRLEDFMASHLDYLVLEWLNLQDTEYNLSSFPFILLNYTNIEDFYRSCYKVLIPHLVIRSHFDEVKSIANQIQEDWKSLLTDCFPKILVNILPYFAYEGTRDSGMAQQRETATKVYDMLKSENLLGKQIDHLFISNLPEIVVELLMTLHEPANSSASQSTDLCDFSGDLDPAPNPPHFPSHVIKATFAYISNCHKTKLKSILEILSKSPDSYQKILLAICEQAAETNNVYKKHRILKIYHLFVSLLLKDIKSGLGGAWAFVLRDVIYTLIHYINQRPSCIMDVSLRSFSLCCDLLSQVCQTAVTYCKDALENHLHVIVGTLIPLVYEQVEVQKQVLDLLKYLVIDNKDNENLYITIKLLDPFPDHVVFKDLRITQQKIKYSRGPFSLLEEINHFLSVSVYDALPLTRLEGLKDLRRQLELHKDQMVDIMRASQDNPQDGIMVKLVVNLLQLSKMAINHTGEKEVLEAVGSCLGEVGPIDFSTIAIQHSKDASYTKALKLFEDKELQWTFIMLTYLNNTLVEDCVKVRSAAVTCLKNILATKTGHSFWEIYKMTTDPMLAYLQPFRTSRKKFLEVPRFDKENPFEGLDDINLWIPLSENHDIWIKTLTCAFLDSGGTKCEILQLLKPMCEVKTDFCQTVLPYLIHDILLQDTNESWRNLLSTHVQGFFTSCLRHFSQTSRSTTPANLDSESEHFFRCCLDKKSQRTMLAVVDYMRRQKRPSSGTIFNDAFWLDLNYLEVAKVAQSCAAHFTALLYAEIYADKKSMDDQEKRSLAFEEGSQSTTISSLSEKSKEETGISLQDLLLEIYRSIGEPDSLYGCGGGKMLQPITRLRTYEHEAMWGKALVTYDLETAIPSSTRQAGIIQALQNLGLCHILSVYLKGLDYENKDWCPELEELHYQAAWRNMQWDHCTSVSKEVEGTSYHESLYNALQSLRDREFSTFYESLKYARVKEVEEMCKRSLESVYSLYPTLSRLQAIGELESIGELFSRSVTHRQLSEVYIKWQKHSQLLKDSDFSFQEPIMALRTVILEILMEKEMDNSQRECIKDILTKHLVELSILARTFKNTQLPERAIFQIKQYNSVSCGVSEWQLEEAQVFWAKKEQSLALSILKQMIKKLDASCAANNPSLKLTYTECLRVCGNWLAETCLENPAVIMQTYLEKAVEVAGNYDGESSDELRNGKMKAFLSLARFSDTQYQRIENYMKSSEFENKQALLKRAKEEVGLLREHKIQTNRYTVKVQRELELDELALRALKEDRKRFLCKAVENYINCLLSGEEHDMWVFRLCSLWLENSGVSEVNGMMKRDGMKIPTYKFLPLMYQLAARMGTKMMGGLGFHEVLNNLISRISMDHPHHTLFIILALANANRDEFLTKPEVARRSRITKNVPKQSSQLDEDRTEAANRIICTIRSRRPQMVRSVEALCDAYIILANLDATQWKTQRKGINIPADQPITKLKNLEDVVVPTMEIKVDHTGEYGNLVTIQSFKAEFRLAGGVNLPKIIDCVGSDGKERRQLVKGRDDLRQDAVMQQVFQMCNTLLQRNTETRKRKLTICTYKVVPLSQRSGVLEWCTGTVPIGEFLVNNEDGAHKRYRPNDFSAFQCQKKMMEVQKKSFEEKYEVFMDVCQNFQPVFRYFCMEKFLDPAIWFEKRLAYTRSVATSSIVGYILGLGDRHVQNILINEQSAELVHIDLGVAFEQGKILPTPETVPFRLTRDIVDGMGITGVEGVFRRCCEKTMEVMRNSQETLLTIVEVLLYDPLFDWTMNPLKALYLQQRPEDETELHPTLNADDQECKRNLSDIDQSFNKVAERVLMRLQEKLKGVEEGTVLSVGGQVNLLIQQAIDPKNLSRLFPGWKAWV

IC50 (ATM) [nM]	Compound	SER2 (concentration at which the radiation sensitivity-enhancement ratio reaches 2) ([1]; Homo sapiens, NCI-H460, 120 h) [nM]	SER2 (concentration at which the radiation sensitivity-enhancement ratio reaches 2) [1] [nM]
< 100	Cc1cccc(C(Nc2ccc3c(c2)Sc2cccc(-c4cc(N5CCOCC5)cc(=O)[nH]4)c2S3)C2CCCN(C)C2)n1 (single isomer, unassigned) [Example 1-22-4, 6-(7-(((1-Methylpiperidin-3-yl)(6-methylpyridin-2-yl)methyl)amino)thianthren-1-yl)-4-morpholino pyridin-2 (1H)-one]	< 100	–
< 100	Cc1cccc(C(Nc2ccc3c(c2)Sc2cccc(-c4cc(N5CCOCC5)cc(=O)[nH]4)c2S3)C2CCCN(C)C2)n1 (single isomer, unassigned) [Example 1-22-5, 6-(7-(((1-Methylpiperidin-3-yl)(6-methylpyridin-2-yl)methyl)amino)thianthren-1-yl)-4-morpholino pyridin-2 (1H)-one]	–	100 to 500
< 100	Cc1cccc(C(Nc2ccc3c(c2)Sc2cccc(-c4cc(N5CCOCC5)cc(=O)[nH]4)c2S3)C2CCN(C)C2)n1 (single isomer, unassigned) [Example 1-22-6, 6-(7-(((6-Methylpyridin-2-yl)(1-methylpyrrolidin-3-yl)methyl)amino)thianthren-1-yl)-4-morpholino pyridin-2 (1H)-one]	< 100	–
< 100	Cc1cccc(C(Nc2ccc3c(c2)Sc2cccc(-c4cc(N5CCOCC5)cc(=O)[nH]4)c2S3)C2CCN(C)C2)n1 (single isomer, unassigned) [Example 1-22-7, 6-(7-(((6-Methylpyridin-2-yl)(1-methylpyrrolidin-3-yl)methyl)amino)thianthren-1-yl)-4-morpholino pyridin-2 (1H)-one]	–	< 100
< 100	Cc1cccc(C(CCN(C)C)Nc2ccc3c(c2)Sc2cccc(-c4cc(N5CCOCC5)cc(=O)[nH]4)c2S3)n1 (single isomer, unassigned) [Example 1-22-11-1, 6-(7-((3-(dimethylamino)-1-(6-methylpyridin-2-yl)propyl)amino)thianthren-1-yl)-4-morpholinopyridin-2(1H)-one]	100 to 500	–
< 100	Cc1cccc(C(CCN(C)C)Nc2ccc3c(c2)Sc2cccc(-c4cc(N5CCOCC5)cc(=O)[nH]4)c2S3)n1 (single isomer, unassigned) [Example 1-22-11-2, 6-(7-((3-(dimethylamino)-1-(6-methylpyridin-2-yl)propyl)amino)thianthren-1-yl)-4-morpholinopyridin-2(1H)-one]	–	< 100
< 100	Cc1ccc(C(Nc2ccc3c(c2)Sc2cccc(-c4cc(N5CCOCC5)cc(=O)[nH]4)c2S3)C2CCN(C)CC2)nc1 (single isomer, unassigned) [Example 1-51-1, 6-(7-(((1-methylpiperidin-4-yl)(5-methylpyridin-2-yl)methyl)amino)thianthren-1-yl)-4-morpholinopyridin-2(1H)-one]	–	< 100
< 100	Cc1ccc(C(Nc2ccc3c(c2)Sc2cccc(-c4cc(N5CCOCC5)cc(=O)[nH]4)c2S3)C2CCN(C)CC2)nc1 (single isomer, unassigned) [Example 1-51-2]	–	100 to 500
< 100	Cc1ccc(C(Nc2ccc3c(c2)Sc2cccc(-c4cc(N5CCOCC5)cc(=O)[nH]4)c2S3)C2CN(C)CCO2)nc1 (single isomer, unassigned) [Example 1-52-2, 6-(7-(((4-methylmorpholin-2-yl)(5-methylpyridin-2-yl)methyl)amino)thianthren-1-yl)-4-morpholinopyridin-2(1H)-one]	–	< 100

More lines, now with the values behind:

Compound	IC50 (ATM) [nM]	SER2 (concentration at which the radiation sensitivity-enhancement ratio reaches 2) ([1]; Homo sapiens, NCI-H460, 120 h) [nM]	SER2 (concentration at which the radiation sensitivity-enhancement ratio reaches 2) [1] [nM]
COCC(CN1CCOCC1)Nc1ccc2c(c1)Sc1cccc(-c3cc(N4CCOCC4)cc(=O)[nH]3)c1S2 (single isomer, unassigned) [Example 1-17-1-2, 6-(7-((1-methoxy-3-morpholinopropan-2-yl)amino)thianthren-1-yl)-4-morpholinopyridin-2(1H)-one]	< 100	< 100	–
Cc1cnc(C(CCN(C)C)Nc2ccc3c(c2)Sc2cccc(-c4cc(N5CCOCC5)cc(=O)[nH]4)c2S3)cn1 (single isomer, unassigned) [Example 1-22-12-1, 6-(7-((3-(dimethylamino)-1-(5-methylpyrazin-2-yl)propyl)amino)thianthren-1-yl)-4-morpholinopyridin-2(1H)-one]	< 100	100 to 500	–
Cc1cnc(C(CCN(C)C)Nc2ccc3c(c2)Sc2cccc(-c4cc(N5CCOCC5)cc(=O)[nH]4)c2S3)cn1 (single isomer, unassigned) [Example 1-22-12-2, 6-(7-((3-(dimethylamino)-1-(5-methylpyrazin-2-yl)propyl)amino)thianthren-1-yl)-4-morpholinopyridin-2(1H)-one]	< 100	–	< 100
O=c1cc(N2CCOCC2)cc(-c2cccc3c2Sc2ccc(NC(CF)CN4CCOCC4)cc2S3)[nH]1 (single isomer, unassigned) [Example 1-41-1-2, 6-(7-((1-fluoro-3-morpholinopropan-2-yl)amino)thianthren-1-yl)-4-morpholinopyridin-2(1H)-one]	< 100	< 100	–
Cc1ccc(C(Nc2ccc3c(c2)Sc2cccc(-c4cc(N5CCOCC5)cc(=O)[nH]4)c2S3)C2CC(N(C)C)C2)nc1 (single isomer, unassigned) [Example 1-50-8, 6-(7-(((3-(Dimethylamino)cyclobutyl)(5-methylpyridin-2-yl)methyl)amino)thianthren-1-yl)-4-morpholino pyridin-2(1H)-one]	< 100	< 100	–
Cc1ccc(C(Nc2ccc3c(c2)Sc2cccc(-c4cc(N5CCOCC5)cc(=O)[nH]4)c2S3)C2CC(N(C)C)C2)nc1 (single isomer, unassigned) [Example 1-50-9, 6-(7-(((3-(Dimethylamino)cyclobutyl)(5-methylpyridin-2-yl)methyl)amino)thianthren-1-yl)-4-morpholino pyridin-2 (1H)-one]	< 100	–	< 100
Cc1ccc(C(CCCN(C)C)Nc2ccc3c(c2)Sc2cccc(-c4cc(N5CCOCC5)cc(=O)[nH]4)c2S3)nc1 (single isomer, unassigned) [Example 1-51-3, 6-(7-((4-(Dimethylamino)-1-(5-methylpyridin-2-yl)butyl)amino)thianthren-1-yl)-4-morpholino pyridin-2(1H)-one]	< 100	100 to 500	–
Cc1ccc(C(Nc2ccc3c(c2)Sc2cccc(-c4cc(N5CCOCC5)cc(=O)[nH]4)c2S3)C2CN(C)CCO2)nc1 (single isomer, unassigned) [Example 1-52-1, 6-(7-(((4-methylmorpholin-2-yl)(5-methylpyridin-2-yl)methyl)amino)thianthren-1-yl)-4-morpholinopyridin-2(1H)-one]	< 100	< 100	–
Cc1cccc(C(C)Nc2ccc3c(c2)Cc2cccc(-c4cc(N5CCOCC5)cc(=O)[nH]4)c2O3)n1 (single isomer, unassigned) [Example 2-14-85-2, 6-(7-((1-(6-methylpyridin-2-yl)ethyl)amino)-9H-xanthen-4-yl)-4-morpholinopyridin-2(1H)-one]	< 100	< 100	–
COc1ccnc(C(C)Nc2ccc3c(c2)Cc2cccc(-c4cc(N5CCOCC5)cc(=O)[nH]4)c2O3)c1 (single isomer, unassigned) [Example 2-14-86-2, 6-(7-((1-(4-methoxypyridin-2-yl)ethyl)amino)-9H-xanthen-4-yl)-4-morpholinopyridin-2(1H)-one]	< 100	100 to 500	–
CC(Nc1ccc2c(c1)Cc1cccc(-c3cc(N4CCOCC4)cc(=O)[nH]3)c1O2)c1cccc(F)n1 (single isomer, unassigned) [Example 2-14-87-1, 6-(7-((1-(6-fluoropyridin-2-yl)ethyl)amino)-9H-xanthen-4-yl)-4-morpholinopyridin-2(1H)-one]	< 100	100 to 500	–
